Test results: paper PMC8286599 (Gut Pathogens, 2021)
Like-named read-outs stand apart in the source and are kept apart here.

Tests used:
[1] = test system: MDR-S. Typhimurium strains; assay: Stability assay, cationic salts (MIC)
Description: (§5) To explore the utility of phytochemicals as therapeutic molecules and their stability, individual phytochemicals were exposed to cationic salts, and different pH levels followed by analysing their MIC and MBC values against test strains as described earlier.
(§6) Subsequent to exposure to varied conditions, the antimicrobial activity of the phytochemicals was estimated by determining their MIC and MBC values against all the selected MDR strains of EAEC, S. Enteritidis, and S. Typhimurium as described earlier.

[2] = test system: MDR-EAEC strains; assay: Stability assay, cationic salts (MIC)
Description: as §5, §6

[3] = test system: MDR-S. Typhimurium strains; assay: MIC and MBC by broth microdilution with resazurin; type: cell-based, Salmonella Typhimurium; conditions: poultry droppings isolate
Description: (§1) The characterised MDR field strains of EAEC (E1; E2; E3), S. Enteritidis (S1; S2; S3), and S. Typhimurium (ST1; ST2; ST3) maintained in the laboratory repository of Meat Safety Laboratory of ICAR-National Research Centre on Meat, Hyderabad re-validated using PCR assays were used to evaluate the in vitro antibacterial efficacy of phytochemicals. E. coli ATCC 25922 was used as the quality control strain.
(§2) The antimicrobial efficacy of identified phytochemicals against multi-drug resistant EAEC and NTS strains was determined by estimating the minimum inhibitory concentration (MIC) and minimum bactericidal concentrations (MBC).
(§3) Subsequent to the incubation period, resazurin dye (0.015 %) was added to all the wells to determine the dye reduction (pink) and thereby the bacterial inhibition.

[4] = test system: MDR-S. Enteritidis strains; assay: Stability assay, cationic salts (MIC)
Description: as §5, §6

[5] = Haemolytic assay, text summary; type: cell-based; conditions: sheep and human, sheep and human 'O' erythrocytes; read-out: Haemolysis
Procedure: (§4) The haemolytic assay of the individual phytochemical was performed by measuring the release of haemoglobin from sheep and human ‘O’ erythrocytes at 540 nm. The percentage of haemolysis was calculated as (Asample – APBS)/ (ATriton−X – APBS) ×100, in which Asample is the absorbance of phytochemical treatment, APBS is the absorbance of untreated control with PBS, and ATriton−X is the absorbance of lysed cells treated with Triton X-100 measured at 540 nm.

[6] = test system: MDR-EAEC strains; assay: MIC and MBC by broth microdilution with resazurin; type: cell-based, enteroaggregative Escherichia coli; conditions: infant diarrhoea isolate
Description: as §1, §2, §3

[7] = Haemolytic assay; type: cell-based; conditions: read-out: Haemolysis; for hemolysis at 0.5 X MIC: 0.50X MIC
Procedure: as §4

[8] = test system: MDR-S. Enteritidis strains; assay: MIC and MBC by broth microdilution with resazurin; type: cell-based, Salmonella Enteritidis; conditions: poultry droppings isolate
Description: as §1, §2, §3

[9] = test system: MDR-S. Enteritidis strains; assay: Stability assay, pH (MIC)
Description: as §5, §6

[10] = test system: MDR-EAEC strains; assay: Stability assay, pH (MIC)
Description: as §5, §6

[11] = test system: MDR-S. Typhimurium strains; assay: Stability assay, pH (MIC)
Description: as §5, §6

[12] = human 'O' erythrocytes, Human RBCs

With `Cc1ccc(C(C)C)cc1O` [Carvacrol, carvacrol] the “MIC with cationic salt” value ([1]; 2 mM MgCl2, strain ST1) was 0.5 µl/ml, the “MIC with cationic salt” value ([1]; 2 mM MgCl2, strain ST2) was 0.5 µl/ml and the “MIC with cationic salt” value ([1]; 2 mM MgCl2, strain ST3) was 0.5 µl/ml. The “MIC with cationic salt” value ([1]; 150 mM NaCl, strain ST1) was 0.5 µl/ml, the “MIC with cationic salt” value ([1]; 150 mM NaCl, strain ST2) was 0.5 µl/ml and the “MIC with cationic salt” value ([1]; 150 mM NaCl, strain ST3) was 0.5 µl/ml. For the same compound, the “MIC with cationic salt” value ([2]; 2 mM MgCl2, strain E1) was 0.5 µl/ml, the “MIC with cationic salt” value ([2]; 2 mM MgCl2, strain E2) was 1.0 µl/ml and the “MIC with cationic salt” value ([2]; 2 mM MgCl2, strain E3) was 1.0 µl/ml. The “Change of MIC values with cationic salts” value ([2]; 150 mM NaCl and 2 mM MgCl2, MDR-EAEC strains) was “two- to four-fold increase”, the “MIC with cationic salt” value ([2]; 150 mM NaCl, strain E1) was 1.0 µl/ml and the “MIC with cationic salt” value ([2]; 150 mM NaCl, strain E2) was 1.0 µl/ml. For the same compound, the “MIC with cationic salt” value ([2]; 150 mM NaCl, strain E3) was 1.0 µl/ml, the MBC ([3]; S. Typhimurium (ST1)) was 0.50 µl/ml and the MIC ([3]; S. Typhimurium (ST1)) was 0.12 µl/ml. For the same compound, the MBC ([3]; S. Typhimurium (ST2)) was 0.50 µl/ml, the MIC ([3]; S. Typhimurium (ST2)) was 0.12 µl/ml and the MBC ([3]; S. Typhimurium (ST3)) was 0.50 µl/ml. For the same compound, the MIC ([3]; S. Typhimurium (ST3)) was 0.12 µl/ml, the “MIC with cationic salt” value ([4]; 2 mM MgCl2, strain S1) was 0.5 µl/ml and the “MIC with cationic salt” value ([4]; 2 mM MgCl2, strain S2) was 0.5 µl/ml. The “MIC with cationic salt” value ([4]; 2 mM MgCl2, strain S3) was 0.5 µl/ml, the “MIC with cationic salt” value ([4]; 150 mM NaCl, strain S1) was 0.5 µl/ml and the “MIC with cationic salt” value ([4]; 150 mM NaCl, strain S2) was 1.0 µl/ml. The “MIC with cationic salt” value ([4]; 150 mM NaCl, strain S3) was 0.5 µl/ml, the hemolysis [5] was 57 to 82% and the MBC ([6]; EAEC (E1)) was 1.0 µl/ml. For the same compound, the MIC ([6]; EAEC (E1)) was 0.25 µl/ml, the MBC ([6]; EAEC (E2)) was 0.50 µl/ml and the MIC ([6]; EAEC (E2)) was 0.50 µl/ml. The MBC ([6]; EAEC (E3)) was 0.50 µl/ml, the MIC ([6]; EAEC (E3)) was 0.25 µl/ml and the hemolysis at 0.25 X MIC [7, 12] was 2.66%. For the same compound, the hemolysis at 0.5 X MIC [7, 12] was 4.88%, the hemolysis at 1 X MIC [7, 12] was 11.2% and the hemolysis at 2 X MIC [7, 12] was 57.2%. For the same compound, the hemolysis at 4 X MIC [7, 12] was 82.1%, the hemolysis at 8 X MIC [7, 12] was 92.7% and the hemolysis at 0.25 X MIC ([7]; sheep erythrocytes, Sheep RBCs) was 0%. For the same compound, the hemolysis at 0.5 X MIC ([7]; sheep erythrocytes, Sheep RBCs) was 0.773%, the hemolysis at 1 X MIC ([7]; sheep erythrocytes, Sheep RBCs) was 1.25% and the hemolysis at 2 X MIC ([7]; sheep erythrocytes, Sheep RBCs) was 75.7%. It also gave a hemolysis at 4 X MIC ([7]; sheep erythrocytes, Sheep RBCs) of 81.8%, a hemolysis at 8 X MIC ([7]; sheep erythrocytes, Sheep RBCs) of 86% and an MBC ([8]; S. Enteritidis (S1)) of 0.50 µl/ml. The MIC ([8]; S. Enteritidis (S1)) was 0.12 µl/ml, the MBC ([8]; S. Enteritidis (S2)) was 0.50 µl/ml and the MIC ([8]; S. Enteritidis (S2)) was 0.25 µl/ml. The MBC ([8]; S. Enteritidis (S3)) was 0.50 µl/ml, the MIC ([8]; S. Enteritidis (S3)) was 0.25 µl/ml and the “MIC at given pH” value ([9]; pH 4, strain S1) was 0.5 µl/ml. For the same compound, the “MIC at given pH” value ([9]; pH 4, strain S2) was 0.5 µl/ml, the “MIC at given pH” value ([9]; pH 4, strain S3) was 0.5 µl/ml and the “MIC at given pH” value ([9]; pH 6, strain S1) was 0.5 µl/ml. For the same compound, the “MIC at given pH” value ([9]; pH 6, strain S2) was 0.5 µl/ml, the “MIC at given pH” value ([9]; pH 6, strain S3) was 0.5 µl/ml and the “MIC at given pH” value ([9]; pH 8, strain S1) was 0.5 µl/ml. For the same compound, the “MIC at given pH” value ([9]; pH 8, strain S2) was 0.5 µl/ml, the “MIC at given pH” value ([9]; pH 8, strain S3) was 0.5 µl/ml and the “MIC at given pH” value ([10]; pH 4, strain E1) was 0.5 µl/ml. For the same compound, the “MIC at given pH” value ([10]; pH 4, strain E2) was 1.0 µl/ml, the “MIC at given pH” value ([10]; pH 4, strain E3) was 0.5 µl/ml and the “Change of MIC values at varied pH” value ([10]; pH 4.0 to 8.0, MDR-EAEC strains) was “two- to four-fold increase”. For the same compound, the “MIC at given pH” value ([10]; pH 6, strain E1) was 0.5 µl/ml, the “MIC at given pH” value ([10]; pH 6, strain E2) was 1.0 µl/ml and the “MIC at given pH” value ([10]; pH 6, strain E3) was 0.5 µl/ml. The “MIC at given pH” value ([10]; pH 8, strain E1) was 0.5 µl/ml, the “MIC at given pH” value ([10]; pH 8, strain E2) was 1.0 µl/ml and the “MIC at given pH” value ([10]; pH 8, strain E3) was 0.5 µl/ml. The “MIC at given pH” value ([11]; pH 4, strain ST1) was 0.5 µl/ml, the “MIC at given pH” value ([11]; pH 4, strain ST2) was 0.5 µl/ml and the “MIC at given pH” value ([11]; pH 4, strain ST3) was 1.0 µl/ml. For the same compound, the “MIC at given pH” value ([11]; pH 6, strain ST1) was 0.5 µl/ml, the “MIC at given pH” value ([11]; pH 6, strain ST2) was 1.0 µl/ml and the “MIC at given pH” value ([11]; pH 6, strain ST3) was 1.0 µl/ml. For the same compound, the “MIC at given pH” value ([11]; pH 8, strain ST1) was 2.0 µl/ml, the “MIC at given pH” value ([11]; pH 8, strain ST2) was 1.0 µl/ml and the “MIC at given pH” value ([11]; pH 8, strain ST3) was 1.0 µl/ml.
